In patent publication US12448389B2, “BRM targeting compounds and associated methods of use” (Prelude Therapeutics Incorporated, priority 2020, dated 2025):

Tests used:
SMARCA2-HiBiT = biological target: T1, SMARCA2-HiBiT (Homo sapiens, UniProt P51531); test: SMARCA2 HiBiT degradation assay in HeLa cells; type: cell-based; conditions: 18 hours incubation; for DC50: read-out: HeLa_HiBit-SM2 DC50; for Dmax: HeLa, read-out: HeLa-HiBit-SM2 Dmax (%)
T1 construct: SMARCA2-HiBiT knock-in Hela monoclonal cell (CS302366); host or cells: HeLa monoclonal knock-in line (CRISPR HiBiT knock-in at the endogenous locus, heterozygous)
T1 sequence (P51531 whole entry): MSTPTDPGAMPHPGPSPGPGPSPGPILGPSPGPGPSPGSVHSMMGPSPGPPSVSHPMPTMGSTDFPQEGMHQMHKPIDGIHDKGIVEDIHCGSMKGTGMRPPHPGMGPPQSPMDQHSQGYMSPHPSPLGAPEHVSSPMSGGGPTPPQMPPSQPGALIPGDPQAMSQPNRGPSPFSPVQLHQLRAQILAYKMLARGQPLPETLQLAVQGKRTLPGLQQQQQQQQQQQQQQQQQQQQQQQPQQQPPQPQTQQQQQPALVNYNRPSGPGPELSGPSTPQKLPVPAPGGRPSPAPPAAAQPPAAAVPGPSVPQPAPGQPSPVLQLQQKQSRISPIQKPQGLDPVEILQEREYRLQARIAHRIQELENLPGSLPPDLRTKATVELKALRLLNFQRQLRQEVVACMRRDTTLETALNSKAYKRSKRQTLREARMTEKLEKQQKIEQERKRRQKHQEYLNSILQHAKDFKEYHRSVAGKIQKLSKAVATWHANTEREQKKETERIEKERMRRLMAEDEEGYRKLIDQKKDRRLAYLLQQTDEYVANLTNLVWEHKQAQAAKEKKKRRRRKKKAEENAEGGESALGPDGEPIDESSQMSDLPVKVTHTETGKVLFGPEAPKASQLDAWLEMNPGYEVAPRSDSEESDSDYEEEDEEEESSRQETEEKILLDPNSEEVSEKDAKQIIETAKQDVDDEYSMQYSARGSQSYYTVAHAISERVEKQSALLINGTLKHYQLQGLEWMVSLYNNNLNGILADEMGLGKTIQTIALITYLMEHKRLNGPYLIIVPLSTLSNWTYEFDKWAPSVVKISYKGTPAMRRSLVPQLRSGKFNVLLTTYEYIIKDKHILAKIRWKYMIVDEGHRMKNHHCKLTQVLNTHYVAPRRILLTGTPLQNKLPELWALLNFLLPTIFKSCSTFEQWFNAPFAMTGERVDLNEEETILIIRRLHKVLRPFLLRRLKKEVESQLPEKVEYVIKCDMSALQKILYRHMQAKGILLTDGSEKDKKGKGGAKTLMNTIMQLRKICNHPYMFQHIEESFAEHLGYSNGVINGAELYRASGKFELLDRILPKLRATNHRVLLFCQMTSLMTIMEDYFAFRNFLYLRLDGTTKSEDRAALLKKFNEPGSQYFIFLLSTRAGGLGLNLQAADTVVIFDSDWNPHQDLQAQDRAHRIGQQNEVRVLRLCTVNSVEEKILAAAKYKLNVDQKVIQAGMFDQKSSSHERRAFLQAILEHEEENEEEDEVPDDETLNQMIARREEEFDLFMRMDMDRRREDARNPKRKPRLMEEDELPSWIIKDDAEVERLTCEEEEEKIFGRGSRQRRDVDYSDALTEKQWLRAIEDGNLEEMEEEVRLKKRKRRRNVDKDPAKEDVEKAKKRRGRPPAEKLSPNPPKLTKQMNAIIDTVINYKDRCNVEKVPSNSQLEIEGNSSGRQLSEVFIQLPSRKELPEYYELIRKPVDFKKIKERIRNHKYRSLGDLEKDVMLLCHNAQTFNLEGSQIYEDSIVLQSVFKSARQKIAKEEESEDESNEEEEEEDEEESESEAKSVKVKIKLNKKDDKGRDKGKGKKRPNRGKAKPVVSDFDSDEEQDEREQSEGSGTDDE
In short: (§1)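 HeLa monoclonal lines with heterozygous HiBiT knock-in were seeded at 2500 cells/well in EMEM with 10% FBS and treated with compound for 18 h at 37 °C. Remaining tagged protein was measured by Nano-Glo HiBiT lytic luminescence after 30–60 min at RT, and values came from curve fitting.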

SMARCA4-HiBiT = biological target: T2, SMARCA4-HiBiT (Homo sapiens, UniProt P51532); test: SMARCA4 HiBiT degradation assay in HeLa cells; type: cell-based; conditions: 18 hours incubation; for DC50: read-out: HeLa-HiBit-SM4 DC50; for Dmax: HeLa, read-out: HeLa-HiBit-SM4 Dmax (%)
T2 construct: SMARCA4-HiBiT knock-in Hela monoclonal cell (CS3023226); host or cells: HeLa monoclonal knock-in line (CRISPR HiBiT knock-in at the endogenous locus, heterozygous)
T2 sequence (P51532 whole entry): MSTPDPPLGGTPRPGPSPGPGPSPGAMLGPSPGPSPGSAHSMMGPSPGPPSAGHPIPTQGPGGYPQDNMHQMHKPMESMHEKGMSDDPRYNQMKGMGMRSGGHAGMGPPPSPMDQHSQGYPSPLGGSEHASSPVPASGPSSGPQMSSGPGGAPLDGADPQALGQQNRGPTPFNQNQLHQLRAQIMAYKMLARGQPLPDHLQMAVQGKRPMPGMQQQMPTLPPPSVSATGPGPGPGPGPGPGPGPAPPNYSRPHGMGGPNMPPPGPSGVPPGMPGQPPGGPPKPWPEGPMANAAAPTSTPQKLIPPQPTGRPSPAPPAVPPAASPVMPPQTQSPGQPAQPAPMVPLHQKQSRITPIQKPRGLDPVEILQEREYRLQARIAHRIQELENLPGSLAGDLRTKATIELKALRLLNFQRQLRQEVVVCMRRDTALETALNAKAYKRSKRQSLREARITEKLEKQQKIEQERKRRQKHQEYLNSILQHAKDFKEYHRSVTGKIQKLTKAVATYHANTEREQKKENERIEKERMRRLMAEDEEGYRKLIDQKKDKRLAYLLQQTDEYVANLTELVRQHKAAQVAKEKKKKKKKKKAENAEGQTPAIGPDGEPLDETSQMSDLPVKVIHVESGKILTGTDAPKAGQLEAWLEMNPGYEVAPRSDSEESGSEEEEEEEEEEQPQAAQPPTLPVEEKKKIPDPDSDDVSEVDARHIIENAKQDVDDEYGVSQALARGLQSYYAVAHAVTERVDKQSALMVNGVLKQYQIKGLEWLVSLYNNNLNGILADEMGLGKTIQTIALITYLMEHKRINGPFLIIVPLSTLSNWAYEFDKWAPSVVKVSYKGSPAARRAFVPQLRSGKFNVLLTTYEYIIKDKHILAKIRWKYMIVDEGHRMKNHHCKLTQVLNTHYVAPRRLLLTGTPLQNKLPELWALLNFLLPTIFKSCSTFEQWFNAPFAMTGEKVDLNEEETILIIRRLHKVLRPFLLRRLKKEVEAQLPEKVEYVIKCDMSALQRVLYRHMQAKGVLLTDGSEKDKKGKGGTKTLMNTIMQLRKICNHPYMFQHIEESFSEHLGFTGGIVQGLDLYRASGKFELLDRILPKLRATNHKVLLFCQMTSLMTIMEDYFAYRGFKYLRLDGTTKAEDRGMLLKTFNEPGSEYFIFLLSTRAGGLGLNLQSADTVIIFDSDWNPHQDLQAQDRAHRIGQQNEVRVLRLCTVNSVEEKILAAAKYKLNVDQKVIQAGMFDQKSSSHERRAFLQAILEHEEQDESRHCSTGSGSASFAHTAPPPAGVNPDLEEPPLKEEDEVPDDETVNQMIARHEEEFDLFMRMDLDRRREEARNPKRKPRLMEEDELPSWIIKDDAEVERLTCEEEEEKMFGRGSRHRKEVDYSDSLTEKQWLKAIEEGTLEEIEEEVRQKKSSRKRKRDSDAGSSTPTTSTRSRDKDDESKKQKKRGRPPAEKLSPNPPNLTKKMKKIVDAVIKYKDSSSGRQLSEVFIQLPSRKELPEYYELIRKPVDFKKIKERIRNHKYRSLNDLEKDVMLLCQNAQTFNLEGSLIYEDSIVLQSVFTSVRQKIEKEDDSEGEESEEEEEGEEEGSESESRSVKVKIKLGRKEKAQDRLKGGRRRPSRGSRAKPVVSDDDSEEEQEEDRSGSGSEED
In short: as §1

Row | Structure (SMILES) | DC50 (SMARCA2-HiBiT) | Dmax (SMARCA2-HiBiT) | DC50 (SMARCA4-HiBiT) | Dmax (SMARCA4-HiBiT) | HeLa-HiBit-SM4 Dmax (%) (SMARCA4-HiBiT)
1 | O=C1CCC(N2C(=O)c3ccc(N4[C@@H]5CC[C@H]4CC(CN4CCC(CN6CCN7c8cc(-c9ccccc9O)nnc8NC[C@H]7C6)CC4)C5)cc3C2=O)C(=O)N1 (stereo partly drawn) [Example 180, 2-(2,6-dioxopiperidin-3-yl)-5-[(1S,5R)-3-[[4-[[(10S)-4-(2-hydroxyphenyl)-1,5,6,8,12-pentazatricyclo[8.4.0.02,7]tetradeca-2,4,6-trien-12-yl]methyl]piperidin-1-yl]methyl]-8-azabicyclo[3.2.1]octan-8-yl]isoindole-1,3-dione] | < 10 nM | 75 to 85% | < 10 nM | 75 to 85% | –
2 | CC1CC(CN2CCC(CN3CCN4c5cc(-c6ccccc6O)nnc5NC[C@H]4C3)CC2)CCN1c1ccc2c(c1)C(=O)N(C1CCC(=O)NC1=O)C2=O (stereo partly drawn) [Example 148, 2-(2,6-dioxopiperidin-3-yl)-5-(4-((4-(((S)-2-(2-hydroxyphenyl)-5,6,6a,7,9,10-hexahydro-8H-pyrazino[1′,2′:4,5]pyrazino[2,3-c]pyridazin-8-yl)methyl)piperidin-1-yl)methyl)-2-methylpiperidin-1-yl)isoindoline-1,3-dione] | < 10 nM | > 85% | < 10 nM | > 85% | –
3 | O=C1CCC(N2C(=O)c3ccc(N4CCC(CN5CCC(O)(CN6CCN7c8cc(-c9ccccc9O)nnc8NC[C@H]7C6)CC5)CC4)cc3C2=O)C(=O)N1 (stereo partly drawn) [Example 38, 2-(2,6-dioxopiperidin-3-yl)-5-(4-((4-hydroxy-4-(((S)-2-(2-hydroxyphenyl)-5,6,6a,7,9,10-hexahydro-8H-pyrazino[1′,2′:4,5]pyrazino[2,3-c]pyridazin-8-yl)methyl)piperidin-l-yl)methyl)piperidin-1-yl)isoindoline-1,3-dione] | < 10 nM | > 85% | < 10 nM | > 85% | –
4 | O=C1CCC(N2C(=O)c3ccc(N4CCC(CNC56CC(CN7CCN8c9cc(-c%10ccccc%10O)nnc9NC[C@H]8C7)(C5)C6)CC4)cc3C2=O)C(=O)N1 (stereo partly drawn) [Example 134, 2-(2,6-dioxopiperidin-3-yl)-5-(4-(((3-(((S)-2-(2-hydroxyphenyl)-5,6,6a,7,9,10-hexahydro-8H-pyrazino[1′,2′:4,5]pyrazino[2,3-c]pyridazin-8-yl)methyl)bicyclo[1.1.1]pentan-1-yl)amino)methyl)piperidin-1-yl)isoindoline-1,3-dione] | < 10 nM | 75 to 85% | < 10 nM | 50 to 75% | –
5 | CC1CC(CN2CCN3c4cc(-c5ccccc5O)nnc4NC[C@H]3C2)CCN1CC1CCN(c2cc3c(cc2F)C(=O)N(C2CCC(=O)NC2=O)C3=O)CC1 (stereo partly drawn) [Example 166, 2-(2,6-dioxopiperidin-3-yl)-5-fluoro-6-[4-[[4-[[(10S)-4-(2-hydroxyphenyl)-1,5,6,8,12-pentazatricyclo[8.4.0.02,7]tetradeca-2,4,6-trien-12-yl]methyl]-2-methylpiperidin-1-yl]methyl]piperidin-1-yl] isoindole-1,3-dione] | < 10 nM | > 85% | < 10 nM | > 85% | –
6 | O=C1CCC(N2Cc3ccc(N4CCC(CN5CCN(C(=O)N6CCN7c8cc(-c9ccccc9O)nnc8NC[C@H]7C6)C(C(F)(F)F)C5)CC4)cc3C2=O)C(=O)N1 (stereo partly drawn) [Example 100, 3-(6-(4-((4-((S)-2-(2-hydroxyphenyl)-6,6a,7,8,9,10-hexahydro-5H-pyrazino[1′,2′:4,5]pyrazino[2,3-c]pyridazine-8-carbonyl)-3-(trifluoromethyl)piperazin-1-yl)methyl)piperidin-1-yl)-1-oxoisoindolin-2-yl)piperidine-2,6-dione] | < 10 nM | 75 to 85% | 10 to 100 nM | 75 to 85% | –
7 | O=C1CCC(N2C(=O)c3ccc(N4CCC(CN5CCC(NC(=O)N6CCN7c8cc(-c9ccccc9O)nnc8NC[C@H]7C6)CC5)CC4)cc3C2=O)C(=O)N1 (stereo partly drawn) [Example 80, (6aS)-N-(1-((1-(2-(2,6-dioxopiperidin-3-yl)-1,3-dioxoisoindolin-5-yl)piperidin-4-yl)methyl)piperidin-4-yl)-2-(2-hydroxyphenyl)-5,6,6a,7,9,10-hexahydro-8H-pyrazino[1′,2′:4,5]pyrazino[2,3-c]pyridazine-8-carboxamide] | < 10 nM | > 85% | < 10 nM | > 85% | –
8 | O=C1CCC(N2C(=O)c3ccc(N4CCC(CN5CC6(CC(CN7CCN8c9cc(-c%10ccccc%10O)nnc9NC[C@H]8C7)C6)C5)CC4)cc3C2=O)C(=O)N1 (stereo partly drawn) [Example 41, 2-(2,6-dioxopiperidin-3-yl)-5-(4-((6-(((S)-2-(2-hydroxyphenyl)-5,6,6a,7,9,10-hexahydro-8H-pyrazino[1′,2′:4,5]pyrazino[2,3-c]pyridazin-8-yl)methyl)-2-azaspiro[3.3]heptan-2-yl)methyl)piperidin-1-yl)isoindoline-1,3-dione] | < 10 nM | > 85% | < 10 nM | > 85% | –
9 | CC(COc1ccc2c(c1)CN([C@@H]1CCC(=O)NC1=O)C2=O)N1CCC(N2CCN3c4cc(-c5ccccc5O)nnc4NC[C@H]3C2)CC1 (stereo partly drawn) [Example 215, (3R)-3-(5-(2-(4-((S)-2-(2-hydroxyphenyl)-5,6,6a,7,9,10-hexahydro-8H-pyrazino[1′,2′:4,5]pyrazino[2,3-c]pyridazin-8-yl)piperidin-1-yl)propoxy)-1-oxoisoindolin-2-yl)piperidine-2,6-dione] | < 10 nM | 50 to 75% | 10 to 100 nM | 50 to 75% | –
10 | O=C1CCC(N2C(=O)c3ccc(N4CC5(CC(CN6CCC(CN7CCN8c9cc(-c%10ccccc%10O)nnc9NC[C@H]8C7)CC6)C5)C4)cc3C2=O)C(=O)N1 (stereo partly drawn) [Example 147, 2-(2,6-dioxopiperidin-3-yl)-5-(6-((4-(((S)-2-(2-hydroxyphenyl)-5,6,6a,7,9,10-hexahydro-8H-pyrazino[1′,2′:4,5]pyrazino[2,3-c]pyridazin-8-yl)methyl)piperidin-1-yl)methyl)-2-azaspiro[3.3]heptan-2-yl)isoindoline-1,3-dione] | < 10 nM | > 85% | < 10 nM | > 85% | –
11 | O=C1CCC(N2C(=O)c3ccc(N4CC[C@H](CN5CCC(C(=O)N6CCN7c8cc(-c9cc(F)ccc9O)nnc8NC[C@H]7C6)CC5)[C@@H](F)C4)cc3C2=O)C(=O)N1 (stereo partly drawn) [Example 279, 2-(2,6-dioxopiperidin-3-yl)-5-((3R,4R)-3-fluoro-4-((4-((S)-2-(5-fluoro-2-hydroxyphenyl)-6,6a,7,8,9,10-hexahydro-5H-pyrazino[1′,2′:4,5]pyrazino[2,3-c]pyridazine-8-carbonyl)piperidin-1-yl)methyl)piperidin-1-yl)isoindoline-1,3-dione] | < 10 nM | > 85% | < 10 nM | – | C (C=50%<Dmax<=75%)

Next, values leading:

Row | DC50 (SMARCA2-HiBiT) | Dmax (SMARCA2-HiBiT) | DC50 (SMARCA4-HiBiT) | Dmax (SMARCA4-HiBiT) | HeLa-HiBit-SM4 Dmax (%) (SMARCA4-HiBiT) | Structure (SMILES)
12 | < 10 nM | > 85% | < 10 nM | > 85% | – | O=C1CCC(N2C(=O)c3ccc(N4CCC(CN5CCC(N6CCN7c8cc(-c9ccccc9O)nnc8NC[C@H]7C6)CC5)CC4)cc3C2=O)C(=O)N1 (stereo partly drawn) [Example 30, 2-(2,6-dioxopiperidin-3-yl)-5-(4-((4-((S)-2-(2-hydroxyphenyl)-5,6,6a,7,9,10-hexahydro-8H-pyrazino[1′,2′:4,5]pyrazino[2,3-c]pyridazin-8-yl)piperidin-1-yl)methyl)piperidin-1-yl)isoindoline-1,3-dione]
13 | < 10 nM | > 85% | < 10 nM | > 85% | – | O=C1CCC(N2Cc3cc(C4CCN(C5CCN(CCN6CCN7c8cc(-c9ccccc9O)nnc8NC[C@H]7C6)CC5)CC4)ccc3C2=O)C(=O)N1 (stereo partly drawn) [Example 212, 3-(5-(1′-(2-((S)-2-(2-hydroxyphenyl)-5,6,6a,7,9,10-hexahydro-8H-pyrazino[1′,2′:4,5]pyrazino[2,3-c]pyridazin-8-yl)ethyl)-[1,4′-bipiperidin]-4-yl)-1-oxoisoindolin-2-yl)piperidine-2,6-dione]
14 | < 10 nM | > 85% | < 10 nM | > 85% | – | O=C1CCC(N2Cc3cc(N4CCC(CN5CCC(CN6CCN7c8cc(-c9ccccc9O)nnc8NC[C@H]7C6)CC5)CC4)ccc3C2=O)C(=O)N1 (stereo partly drawn) [Example 231, 3-(5-(4-((4-(((S)-2-(2-hydroxyphenyl)-5,6,6a,7,9,10-hexahydro-8H-pyrazino[1′,2′:4,5]pyrazino[2,3-c]pyridazin-8-yl)methyl)piperidin-1-yl)methyl)piperidin-1-yl)-1-oxoisoindolin-2-yl)piperidine-2,6-dione]
15 | < 10 nM | > 85% | < 10 nM | > 85% | – | O=C1CCC(n2ccc3cc(N4CCC(CN5CCC(N6CCN7c8cc(-c9ccccc9O)nnc8NC[C@H]7C6)CC5)CC4)ccc3c2=O)C(=O)N1 (stereo partly drawn) [Example 26, 3-(6-(4-((4-((S)-2-(2-hydroxyphenyl)-5,6,6a,7,9,10-hexahydro-8H-pyrazino [1′,2′:4,5]pyrazino[2,3-c]pyridazin-8-yl)piperidin-1-yl)methyl)piperidin-1-yl)-1-oxoisoquinolin-2(1H)-yl)piperidine-2,6-dione]
16 | 10 to 100 nM | 50 to 75% | 10 to 100 nM | 75 to 85% | – | O=C1CCC(N2C(=O)c3ccc(N4CCC(F)(F)C(CN5C[C@@H]6[C@H](C5)[C@H]6CN5CCN6c7cc(-c8ccccc8O)nnc7NC[C@H]6C5)C4)cc3C2=O)C(=O)N1 (stereo partly drawn) [Example 55, 5-(4,4-difluoro-3-(((1R,5S,6r)-6-(((S)-2-(2-hydroxyphenyl)-5,6,6a,7,9,10-hexahydro-8H-pyrazino[1′,2′:4,5]pyrazino[2,3-c]pyridazin-8-yl)methyl)-3-azabicyclo[3.1.0]hexan-3-yl)methyl)piperidin-1-yl)-2-(2,6-dioxopiperidin-3-yl)isoindoline-1,3-dione]
